Several values for one entry are separate records, joined by “and”; a condition that tells them apart may be missing. Equal values may be shown once. Entries after “also recorded” stand apart in the source; their conditions may differ.
Experiments:
[1] = molecular target: native α7 nAChR in hippocampal neurons (Rattus norvegicus, UniProt Q05941); assay type: cell-based
human α7 nAChR [2] = molecular target: T1, human α7 nAChR (Homo sapiens, UniProt P36544); experiment: Two-electrode voltage clamp; assay type: cell-based; conditions: for Concentration needed to reach 30% of the response of ACh: oocyte assay; for Maximal response vs 3 mmol/L ACh: peak current normalized to 3 mmol/L ACh
[3] = molecular target: human α2β3γ2 GABAA receptor (Homo sapiens, UniProt P18507+P28472+P47869); experiment: TEVC in Xenopus oocytes, GABAA α2β3γ2; assay type: cell-based
rat α4β2 nAChR = rat α4β2 nAChR (Rattus norvegicus, UniProt P09483+P12390); experiment: TEVC in Xenopus oocytes, selectivity on α4β2; assay type: cell-based
rat α3β4 nAChR = rat α3β4 nAChR (Rattus norvegicus, UniProt P04757+P12392); experiment: TEVC in Xenopus oocytes, selectivity on α3β4; assay type: cell-based
human α7 nAChR [4] = molecular target: T1, human α7 nAChR; experiment: TEVC, inhibition; assay type: cell-based
[5] = molecular target: human α5β3γ2 GABAA receptor (Homo sapiens, UniProt P18507+P28472+P31644); experiment: TEVC in Xenopus oocytes, GABAA α5β3γ2; assay type: cell-based
[6] = molecular target: human α1β3γ2 GABAA receptor (Homo sapiens, UniProt P14867+P18507+P28472); experiment: TEVC in Xenopus oocytes, GABAA α1β3γ2; assay type: cell-based
α7 nAChR [7] = molecular target: T2, α7 nAChR (Rattus norvegicus, UniProt Q05941); experiment: biochemical
α7 nAChR [8] = molecular target: T2, α7 nAChR; conditions: Ki ratio vs ACh
human 5-HT3A receptor = molecular target: T3, human 5-HT3A receptor (Homo sapiens, UniProt P46098); experiment: TEVC in Xenopus oocytes, selectivity on 5-HT3A; assay type: cell-based
T3 sequence (P46098 24-478): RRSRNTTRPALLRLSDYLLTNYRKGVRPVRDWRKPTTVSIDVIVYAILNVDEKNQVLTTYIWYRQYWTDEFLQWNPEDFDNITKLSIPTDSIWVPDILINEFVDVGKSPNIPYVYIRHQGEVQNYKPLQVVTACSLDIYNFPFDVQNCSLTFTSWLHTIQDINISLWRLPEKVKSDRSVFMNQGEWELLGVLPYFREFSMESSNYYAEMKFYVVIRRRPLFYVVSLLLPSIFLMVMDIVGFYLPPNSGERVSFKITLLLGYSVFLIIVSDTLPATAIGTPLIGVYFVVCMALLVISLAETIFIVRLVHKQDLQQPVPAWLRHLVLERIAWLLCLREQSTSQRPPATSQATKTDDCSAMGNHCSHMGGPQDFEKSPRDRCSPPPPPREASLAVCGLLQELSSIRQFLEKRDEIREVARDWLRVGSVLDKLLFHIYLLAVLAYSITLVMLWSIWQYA

[9] = system: CA1 hippocampal pyramidal neurons; experiment: Spontaneous IPSC recordings in hippocampal brain slices; assay type: cell-based, rat
[10] = molecular target: human α3β3γ2 GABAA receptor (Homo sapiens, UniProt P18507+P28472+P34903); experiment: TEVC in Xenopus oocytes, GABAA α3β3γ2; assay type: cell-based
[11] = system: ERK1/2 phosphorylation in PC12 cells; experiment: Western blot of ERK1/2 phosphorylation in PC12 cells; assay type: cell-based, rat; conditions: pre-incubation 10 min
[12] = 100 μmol/L co-applied with 1 μmol/L GABA
[13] = 100 μmol/L, pre-incubation 1 min
[14] = Br-IQ17B alone, up to 100 μmol/L

Chain of rat α4β2 nAChR (P09483 31-630): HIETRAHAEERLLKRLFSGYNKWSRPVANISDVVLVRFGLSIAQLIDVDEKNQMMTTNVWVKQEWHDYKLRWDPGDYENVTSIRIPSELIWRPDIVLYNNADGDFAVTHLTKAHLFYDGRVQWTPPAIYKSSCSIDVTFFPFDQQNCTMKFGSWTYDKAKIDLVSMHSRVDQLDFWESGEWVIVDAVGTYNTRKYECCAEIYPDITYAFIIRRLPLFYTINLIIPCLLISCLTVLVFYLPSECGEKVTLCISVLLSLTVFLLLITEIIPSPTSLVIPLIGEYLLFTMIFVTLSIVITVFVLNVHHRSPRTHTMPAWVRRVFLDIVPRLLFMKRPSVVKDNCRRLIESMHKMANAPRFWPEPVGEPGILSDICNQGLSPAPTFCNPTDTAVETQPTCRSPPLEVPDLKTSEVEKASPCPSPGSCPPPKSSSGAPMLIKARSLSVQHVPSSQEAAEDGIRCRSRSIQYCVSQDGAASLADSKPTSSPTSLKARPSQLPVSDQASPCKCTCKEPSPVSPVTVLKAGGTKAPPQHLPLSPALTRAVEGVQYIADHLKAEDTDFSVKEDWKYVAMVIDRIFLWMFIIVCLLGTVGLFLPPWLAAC
Chain of rat α4β2 nAChR (P12390 25-500): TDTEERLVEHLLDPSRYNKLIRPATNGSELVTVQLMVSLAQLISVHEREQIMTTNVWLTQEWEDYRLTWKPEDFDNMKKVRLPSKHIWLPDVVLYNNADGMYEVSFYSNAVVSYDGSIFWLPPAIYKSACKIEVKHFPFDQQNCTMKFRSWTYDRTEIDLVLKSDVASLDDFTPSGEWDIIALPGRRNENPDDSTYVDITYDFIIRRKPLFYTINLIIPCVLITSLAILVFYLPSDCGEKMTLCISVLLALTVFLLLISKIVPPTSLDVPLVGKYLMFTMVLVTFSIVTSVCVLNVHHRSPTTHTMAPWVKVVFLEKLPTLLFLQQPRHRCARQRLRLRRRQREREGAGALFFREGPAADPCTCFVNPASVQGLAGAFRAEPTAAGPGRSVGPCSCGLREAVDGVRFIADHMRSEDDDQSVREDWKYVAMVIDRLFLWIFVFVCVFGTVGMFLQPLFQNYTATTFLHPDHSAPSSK
T1 sequence (P36544 23-502): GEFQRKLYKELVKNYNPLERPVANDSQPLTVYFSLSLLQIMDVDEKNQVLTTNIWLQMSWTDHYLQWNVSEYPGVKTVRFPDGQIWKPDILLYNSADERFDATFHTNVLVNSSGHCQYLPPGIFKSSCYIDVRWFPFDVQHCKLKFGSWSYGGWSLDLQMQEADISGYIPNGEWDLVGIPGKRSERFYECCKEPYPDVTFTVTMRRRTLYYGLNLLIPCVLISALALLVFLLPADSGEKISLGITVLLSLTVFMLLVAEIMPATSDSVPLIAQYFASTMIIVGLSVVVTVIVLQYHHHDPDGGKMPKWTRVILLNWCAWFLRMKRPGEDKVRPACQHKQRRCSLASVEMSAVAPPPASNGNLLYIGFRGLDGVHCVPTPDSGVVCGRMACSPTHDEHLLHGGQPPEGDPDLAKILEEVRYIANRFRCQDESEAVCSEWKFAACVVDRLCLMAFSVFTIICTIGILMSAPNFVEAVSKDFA
Chain of rat α3β4 nAChR (P04757 26-499): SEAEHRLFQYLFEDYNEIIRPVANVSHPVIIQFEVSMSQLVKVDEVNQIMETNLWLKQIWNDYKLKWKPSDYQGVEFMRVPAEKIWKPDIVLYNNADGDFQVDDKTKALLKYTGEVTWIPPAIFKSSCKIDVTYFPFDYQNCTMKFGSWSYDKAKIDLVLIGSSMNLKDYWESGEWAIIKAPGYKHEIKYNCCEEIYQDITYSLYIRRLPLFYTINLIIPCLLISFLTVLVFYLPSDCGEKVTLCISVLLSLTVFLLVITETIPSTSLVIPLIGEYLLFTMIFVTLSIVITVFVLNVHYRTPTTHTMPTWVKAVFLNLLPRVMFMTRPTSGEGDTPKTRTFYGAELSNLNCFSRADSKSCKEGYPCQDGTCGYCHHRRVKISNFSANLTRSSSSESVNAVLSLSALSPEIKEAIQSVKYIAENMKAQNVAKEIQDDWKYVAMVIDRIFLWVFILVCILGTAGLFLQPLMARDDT
Chain of rat α3β4 nAChR (P12392 21-495): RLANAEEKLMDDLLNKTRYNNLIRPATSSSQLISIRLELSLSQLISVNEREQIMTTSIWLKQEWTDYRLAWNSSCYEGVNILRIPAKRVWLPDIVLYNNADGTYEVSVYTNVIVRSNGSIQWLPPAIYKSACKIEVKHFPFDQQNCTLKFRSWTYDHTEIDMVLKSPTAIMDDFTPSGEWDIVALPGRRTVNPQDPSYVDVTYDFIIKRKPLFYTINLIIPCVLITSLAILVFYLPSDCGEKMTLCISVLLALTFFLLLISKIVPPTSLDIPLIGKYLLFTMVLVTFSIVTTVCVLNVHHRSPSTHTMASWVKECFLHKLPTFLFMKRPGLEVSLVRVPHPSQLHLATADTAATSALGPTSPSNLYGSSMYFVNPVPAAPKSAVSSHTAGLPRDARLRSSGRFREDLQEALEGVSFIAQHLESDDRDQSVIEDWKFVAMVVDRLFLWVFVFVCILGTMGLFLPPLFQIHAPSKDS
Chain of native α7 nAChR in hippocampal neurons (Q05941 23-502): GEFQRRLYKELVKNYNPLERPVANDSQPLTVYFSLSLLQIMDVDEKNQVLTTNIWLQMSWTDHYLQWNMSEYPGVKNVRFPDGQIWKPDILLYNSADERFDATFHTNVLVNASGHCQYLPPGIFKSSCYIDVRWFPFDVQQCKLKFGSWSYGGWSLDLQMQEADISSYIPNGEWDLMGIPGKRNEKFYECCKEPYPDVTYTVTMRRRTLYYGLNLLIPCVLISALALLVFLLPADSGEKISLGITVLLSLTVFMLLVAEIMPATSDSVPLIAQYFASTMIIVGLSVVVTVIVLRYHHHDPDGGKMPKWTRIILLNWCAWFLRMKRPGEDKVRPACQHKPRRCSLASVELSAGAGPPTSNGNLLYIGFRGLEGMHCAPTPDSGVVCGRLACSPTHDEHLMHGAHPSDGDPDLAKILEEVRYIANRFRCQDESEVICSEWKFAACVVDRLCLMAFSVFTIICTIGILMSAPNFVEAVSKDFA
Chain of human α1β3γ2 GABAA receptor (P14867 28-456): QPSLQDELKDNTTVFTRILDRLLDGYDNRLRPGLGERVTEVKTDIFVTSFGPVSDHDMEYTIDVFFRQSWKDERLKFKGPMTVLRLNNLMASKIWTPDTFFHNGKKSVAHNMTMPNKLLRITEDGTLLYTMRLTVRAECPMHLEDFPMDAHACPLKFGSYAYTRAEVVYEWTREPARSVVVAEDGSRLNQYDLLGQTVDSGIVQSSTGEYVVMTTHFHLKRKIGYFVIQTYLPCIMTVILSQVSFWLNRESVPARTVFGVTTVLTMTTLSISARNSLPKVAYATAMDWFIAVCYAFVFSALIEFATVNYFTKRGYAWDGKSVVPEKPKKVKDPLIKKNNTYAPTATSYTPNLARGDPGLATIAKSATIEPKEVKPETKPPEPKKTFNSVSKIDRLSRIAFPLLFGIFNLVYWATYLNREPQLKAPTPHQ
Chain of human α1β3γ2 GABAA receptor (P28472 26-473): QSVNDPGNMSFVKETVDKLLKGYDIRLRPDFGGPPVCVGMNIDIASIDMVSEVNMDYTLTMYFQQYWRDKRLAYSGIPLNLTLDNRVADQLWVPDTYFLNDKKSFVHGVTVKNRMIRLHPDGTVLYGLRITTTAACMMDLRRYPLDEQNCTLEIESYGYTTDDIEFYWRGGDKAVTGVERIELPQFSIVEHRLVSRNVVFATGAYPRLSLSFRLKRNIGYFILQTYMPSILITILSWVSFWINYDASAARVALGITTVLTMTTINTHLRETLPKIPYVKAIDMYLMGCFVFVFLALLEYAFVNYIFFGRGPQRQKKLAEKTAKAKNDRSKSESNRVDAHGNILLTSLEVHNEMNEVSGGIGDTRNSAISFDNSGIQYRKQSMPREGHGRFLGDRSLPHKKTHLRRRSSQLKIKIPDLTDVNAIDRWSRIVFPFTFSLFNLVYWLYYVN
Chain of human α1β3γ2 GABAA receptor (P18507 40-475): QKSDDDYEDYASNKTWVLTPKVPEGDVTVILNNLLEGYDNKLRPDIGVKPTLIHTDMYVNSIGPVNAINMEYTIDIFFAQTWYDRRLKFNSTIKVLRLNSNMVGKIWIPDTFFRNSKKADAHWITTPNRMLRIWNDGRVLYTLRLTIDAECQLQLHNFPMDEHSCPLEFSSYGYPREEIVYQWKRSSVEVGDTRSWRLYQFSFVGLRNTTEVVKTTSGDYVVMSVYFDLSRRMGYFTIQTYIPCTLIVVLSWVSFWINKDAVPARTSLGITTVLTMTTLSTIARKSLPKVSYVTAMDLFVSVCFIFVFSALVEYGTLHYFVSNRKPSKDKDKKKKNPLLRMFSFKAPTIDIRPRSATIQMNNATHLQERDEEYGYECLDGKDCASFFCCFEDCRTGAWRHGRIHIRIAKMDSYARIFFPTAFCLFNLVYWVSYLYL
Chain of human α5β3γ2 GABAA receptor (P31644 32-462): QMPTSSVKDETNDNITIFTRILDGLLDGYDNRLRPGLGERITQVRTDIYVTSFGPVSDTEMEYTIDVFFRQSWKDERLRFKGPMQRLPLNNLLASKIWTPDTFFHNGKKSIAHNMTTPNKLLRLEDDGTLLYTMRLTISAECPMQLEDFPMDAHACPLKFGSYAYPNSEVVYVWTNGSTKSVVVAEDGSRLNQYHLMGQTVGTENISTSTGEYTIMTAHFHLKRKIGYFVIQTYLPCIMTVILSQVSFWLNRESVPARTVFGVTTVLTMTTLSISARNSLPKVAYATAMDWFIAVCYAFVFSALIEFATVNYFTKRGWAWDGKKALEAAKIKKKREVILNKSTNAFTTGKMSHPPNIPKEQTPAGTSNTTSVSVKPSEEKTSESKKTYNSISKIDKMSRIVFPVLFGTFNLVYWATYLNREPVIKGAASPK
Chain of human α5β3γ2 GABAA receptor (P28472 26-473): as the sequence (P28472 26-473) above
Chain of human α5β3γ2 GABAA receptor (P18507 40-475): as the sequence (P18507 40-475) above
T2 sequence (Q05941 23-502): as the sequence (Q05941 23-502) above

CCN1C[C@]2(COC(=O)c3ccccc3N3C(=O)C[C@H](C)C3=O)CC[C@H](OC)[C@@]34[C@@H]5C[C@H]6[C@H](OC)[C@@H]5[C@](O)(C[C@@H]6OC)[C@@](O)([C@@H](OC)[C@H]23)[C@@H]14 [MLA, methyllycaconitine]
Effect of MLA on Br-IQ17B-evoked native α7 current [1]: completely blocked | Effect of MLA on α7 current evoked by Br-IQ17B (human α7 nAChR [2]; 10 nmol/L MLA, 30 μmol/L Br-IQ17B): inhibited; also recorded: completely blocked

O=C(N[C@H]1CN2CCC1CC2)c1cc2cccc(Br)n2c1 [Br-IQ17B, N-[(3R)-1-azabicyclo[2,2,2]oct-3-yl]-5-bromoindolizine-2-carboxamide]
Allosteric modulation of GABAA α2β3γ2 [3, 12]: no allosteric modulation | Effect on GABAA α2β3γ2 [3, 13]: no observable effects | EC50 (rat α4β2 nAChR): > 100 µM | IC50 (rat α4β2 nAChR): > 100 µM | Agonist activity on α4β2 (rat α4β2 nAChR; [14]): did not induce any current; also recorded: no detectable agonist activity | Effect on ACh-evoked α4β2 current (rat α4β2 nAChR; pre-incubation 1 min or co-application with ACh): no enhancement or inhibition | Maximum effect vs 3 mmol/L ACh or 10 μmol/L 5-HT (rat α4β2 nAChR; α4β2, Rat): 0 | EC50 (rat α3β4 nAChR): > 100 µM | Agonist activity on α3β4 (rat α3β4 nAChR; [14]): did not induce any current; also recorded: no detectable agonist activity | IC50 (rat α3β4 nAChR; IC50, inhibition of ACh-evoked α3β4 current, co-applied with 300 μmol/L ACh): ~382 µM and 382 µM and ~381 µM | Hill coefficient, inhibition of α3β4 (rat α3β4 nAChR; co-applied with 300 μmol/L ACh): 0.9±0.1 | Maximum effect vs 3 mmol/L ACh or 10 μmol/L 5-HT (rat α3β4 nAChR; α3β4, Rat): 0 | IC50 (human α7 nAChR [4]): 0.0285 ± 0.0025 µM | Effect of low concentration on ACh-mediated peak current (human α7 nAChR [4]; 3 nmol/L Br-IQ17B, 100 μmol/L ACh): increased the ACh-mediated peak current | Hill coefficient, inhibition of ACh-evoked α7 current (human α7 nAChR [4]; 1-min sustained exposure, then 100 μmol/L ACh): 2.8±0.3 | Allosteric modulation of GABAA α5β3γ2 [5, 12]: no allosteric modulation | Effect on GABAA α5β3γ2 [5, 13]: no observable effects | Allosteric modulation of GABAA α1β3γ2 [6, 12]: no allosteric modulation | Effect on GABAA α1β3γ2 [6, 13]: no observable effects | Ki (α7 nAChR [7]): 0.0149 ± 0.0032 µM | Current evoked in hippocampal neurons [1]: evoked α7 currents with fast onset and rapid decay | Fold more potent than ACh in [3H]-MLA displacement (α7 nAChR [8]): approximately 300 fold | EC50 (human 5-HT3A receptor): > 100 µM | Maximum effect vs 3 mmol/L ACh or 10 μmol/L 5-HT (human 5-HT3A receptor; 5-HT3A, Human): 0 | Agonist activity on 5-HT3A (human 5-HT3A receptor; Br-IQ17B alone, 0.1–100 μmol/L): did not show any agonist activities | Hill coefficient, inhibition of 5-HT3A (human 5-HT3A receptor; co-applied with 10 μmol/L 5-HT): 2.1±0.1 | sIPSC frequency with co-application of PNU-120596 and Br-IQ17B ([9]; Br-IQ17B 10 μmol/L + PNU-120596 1 μmol/L, 1–5 min, from 4.6±0.7 Hz): 7.8±0.7 Hz | Increase of IPSC peak amplitudes of individual neurons ([9]; Br-IQ17B 10 μmol/L + PNU-120596 1 μmol/L, 5 out of 6 neurons, vs control or PNU120596 alone): 1.3 to 4.9 times | IPSC amplitude in the one neuron out of six without amplitude change ([9]; co-application of Br-IQ17B and PNU-120596, vs 25.3±1.4 pA): 25.9±1.2 pA | Hill coefficient in the presence of PNU-120596 (human α7 nAChR [2]; co-applied with 1 μmol/L PNU-120596): 2.4±0.1 | Hill coefficient, activation of α7 current (human α7 nAChR [2]; compound alone): 1.2±0.1 | Concentration needed to reach 30% of the response of ACh (human α7 nAChR [2]): 1.5 µmol/L | Maximal response vs 3 mmol/L ACh (human α7 nAChR [2]): 64.3%±3.6% | Allosteric modulation of GABAA α3β3γ2 [10, 12]: no allosteric modulation | Effect on GABAA α3β3γ2 [10, 13]: no observable effects

CC(=O)OCC[N+](C)(C)C [ACh, acetylcholine]
Current evoked in hippocampal neurons [1]: evoked α7 currents with fast onset and rapid decay

O=C(N[C@H]1CN2CCC1CC2)c1cc2cccc(Cl)c2s1 [EVP-6124]
EC50 (human α7 nAChR [2]): 0.45 ± 0.08 µM | Concentration needed to reach 30% of the response of ACh (human α7 nAChR [2]): 3 µmol/L | Maximal response vs 3 mmol/L ACh (human α7 nAChR [2]): 30.6%±1.8%

COc1cc(OC)c(NC(=O)Nc2cc(C)on2)cc1Cl [PNU-120596]
Effect of PNU-120596 alone on basal pERK/tERK ratio [11]: slight increase | Effect of PNU-120596 on current activated by Br-IQ17B [1]: significantly enhanced | Effect of PNU-120596 on current evoked by low concentration of ACh ([1]; PNU-120596 1 μmol/L, ACh 10 μmol/L): robustly increased | sIPSC frequency with PNU-120596 alone ([9]; PNU-120596 1 μmol/L, 10 min, baseline 4.5±0.7 Hz): 4.6±0.7 Hz | sIPSC amplitude with PNU-120596 alone ([9]; PNU-120596 1 μmol/L, 10 min, baseline 30.8±6.8 pA): 30.6±4.7 pA
